Key:
Format in all cases: in vivo
[1] = tested on: dandelion (Taraxacum officinale); test: Example 11 field test, dandelion in lawn
Description: (§1) Killex® (Green Cross, Ontario, Canada) is a commonly used selective lawn herbicide and was included in several field tests as a standard. Killex contains 2,4-D (9.5%), mecoprop (5%) and dicamba (0.9%). The product was diluted 6 ml into 1 L of water solution and applied at rate of 200 ml/m^2, as per label instructions.
This test investigated the effect of FeHEDTA and a mixture of FeEDDS and FeMGDA on daisy (Bellis perennis), dandelion (Taraxacum officinale) and a turf bentgrass (Agrostis sp.). The chelating agents were used at one and a half times the molar amount of iron. The FeHEDTA solutions contained 0.2% iron (35.8 mM). The commercially prepared FeHEDTA product from the Monterey Chemical Company (CA, USA) was used as a standard. The (FeEDDS+FeMGDA) solutions contained 0.4% iron (71.6 mM) and the same molar amount of EDDS and MGDA. The solutions were made from NaEDDS (Octaquest E30, Octel) and NaMGDA (Trilon M liquid, BASF, Germany). Ammonium sulfate was added at a concentration of 1%. Killex (Solaris ON, Canada) was diluted and applied as per label instructions of 6 ml/L applied at 200 ml/m^2.
The daisy (0.25 m^2) and dandelion (0.5 m^2) test plots were in different areas of the bentgrass field. The dandelions were large, averaging 30 cm in diameter. The daisy patches were between 10 and 20 cm in diameter. The plants were sprayed weekly 4 times.

[2] = tested on: hairy cat's ear (Hypochoeris radicata); test: Example 13 field test, hairy cat's ear
Description: as §1
This test evaluated FeEDDS (0.4% Fe^+3) and FeHEDTA (0.2% Fe^+3) for controlling the weed hairy cat's ear (Hypochoeris radicata), also known as “false dandelion”, grown in areas of mixed grass and Hypochoeris. The iron solutions were sprayed at a rate of 100 ml/m^2 to 1.0 m^2 plots. The iron treatments were resprayed after 7 and 14 days. Killex (Solaris ON, Canada) was diluted and applied once as per label instructions of 6 ml /L applied at 200 ml/m^2.

perennial ryegrass = test: Example 18 FeHEDTA with Killex, perennial ryegrass
Description: (§2) Plants were fertilized with an all purpose water-soluble fertilizer mix of 20-20-20 (N-P-K; Plant-Prod®) as needed. All broadleaf weeds were grown individually in a 2¼-inch pot until they were a suitable size for herbicide tests (actual weed size is reported in examples below). Perennial ryegrass was also grown in 2¼-inch pots, however many grass seeds were sown in the pot to simulate a small section of turf. Grass plants were continually trimmed to a height of 4 cm, simulating that of a homeowner's lawn. For field tests, plots ¼ m^2 in size were marked out in areas containing the targeted broadleaf weed species growing in turf grass. Plots were continually mowed to simulate a homeowner's lawn. […] In all of the examples, the amounts of the various herbicide components are identified as a percent on a weight basis.
Killex® (Scotts Canada, Ltd., Ontario, Canada) is a commonly used selective lawn herbicide and was used as the commercial herbicide for herbicide combinations. The labeled dilution and application rates for Killex® are 6 ml into 1 L of solution (0.6%) applied at 200 ml/m^2.
(§3) All visual plant damage assessments were made using a quantitative rating scale; percent control relative to the untreated check (0=no effect; 100=plant death).
Materials and Methods: This trial was conducted in the greenhouse. Nine pots of white clover and 10 pots of perennial ryegrass were selected for each treatment. Herbicide solutions were prepared using deionized water. The treatments were applied using a hand-trigger sprayer at 200 ml/m^2. All treatments were applied once. Phytotoxicity (%) was assessed 4, 7, and 14 days after application (A4, A7, and A14).

Park Lawn = test: Example 22 field test FeIDS and/or FeHEDTA with Killex, Park Lawn; details: A7 = 7 days after treatment
Description: as §2, with “basis. […]” for “basis.”
as §3
Materials and Methods: Plots ¼ m^2 in size were marked out in white clover and Park Lawn (turfgrass mixture comprising of 65% perennial ryegrass, 25% chewings/creeping red fescue and 10% Kentucky bluegrass) area in the field. […] Phytotoxicity (%) was assessed on 7 days after treatment (A7).

For `O=C([O-])CN(CCO)CCN(CC(=O)[O-])CC(=O)[O-].[Fe+3]` [FeHEDTA], the “Plot Area Covered by Dandelion Plants (%)” value (“Plot Area Covered … (%)” below) ([1]; day 0 (start of test)) was 80%, the “Dandelion Necrosis (%)” value ([1]; day 2) was 95% and the “Dandelion Necrosis (%)” value ([1]; day 9) was 98%. The “Plot Area Covered … (%)” value ([1]; day 13, sprayed weekly 4 times) was 5%, the “Dandelion Necrosis (%)” value ([1]; day 16) was 97% and the “Plot Area Covered … (%)” value ([1]; day 21) was 10%. The “Dandelion Necrosis (%)” value ([1]; day 23) was 97%, the “Plot Area Covered … (%)” value ([1]; day 26) was 8% and the “Area Covered by Hairy Cat's Ear (%)” value ([2]; day 0) was 65%. For the same compound, the “Relative Cat's Ear Area (Start = 100%)” value ([2]; day 0) was 100%, the “Area Covered by Hairy Cat's Ear (%)” value ([2]; day 6) was 20% and the “Relative Cat's Ear Area (Start = 100%)” value ([2]; day 6) was 31%. For the same compound, the “Area Covered by Hairy Cat's Ear (%)” value ([2]; day 8) was 20%, the “Relative Cat's Ear Area (Start = 100%)” value ([2]; day 8) was 31% and the “Area Covered by Hairy Cat's Ear (%)” value ([2]; day 14) was 5%. For the same compound, the “Relative Cat's Ear Area (Start = 100%)” value ([2]; day 15) was 8%, the “Area Covered by Hairy Cat's Ear (%)” value ([2]; day 18) was 0% and the “Relative Cat's Ear Area (Start = 100%)” value ([2]; day 18) was 0%. For the same compound, the “Phytotoxicity (%) on perennial ryegrass” value (perennial ryegrass; A4) was 2%, the “Phytotoxicity (%) on perennial ryegrass” value (perennial ryegrass; A7) was 1% and the “Phytotoxicity (%) on perennial ryegrass” value (perennial ryegrass; A14) was 2%. The “Phytotoxicity (%) on Park Lawn” value (Park Lawn) was 3%.
